Source: patent publication US20100298141A1, “SUBSTITUTED PYRIDINE N-OXIDE HERBICIDES” (E. I. DU PONT DE NEMOURS AND COMPANY, priority 2007, published 2010)

Key:
Goosegrass = assay: Test C pre-/postemergence test; format: in vivo, Eleusin indica
How it was run: (§1)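 Seeds were planted and treated preemergence with test chemical in a non-phytotoxic solvent mixture containing surfactant. Postemergence applications of the same formulation went onto plants 2 to 18 cm tall (1- to 4-leaf stage). A dash marks no test result.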

umbrella sedge = assay: Test C flooded paddy test; format: in vivo, Cyperus difformis; conditions: Flood
How it was run: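 Visual injury ratings against untreated controls, taken 13 to 15 days after compound was added to paddy water standing 3 cm above the soil.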

crabgrass = assay: Test C pre-/postemergence test; format: in vivo, Digitaria sanguinalis
How it was run: as §1

wheat = assay: Test A pre-/postemergence greenhouse test; format: in vivo, Triticum aestivum; conditions: for Plant response rating, Wheat: 0 to 100 scale where 0 is no effect and 100 is complete control; for Wheat plant response rating: 0 to 100 scale
How it was run: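 Greenhouse herbicide screen, pre- and postemergence in parallel. Soil: loam plus sand. Formulation: non-phytotoxic solvent mix with surfactant. Postemergence stage: one to two leaves, 2–10 cm height. Evaluation: visual injury, compared with untreated controls, about 10 days after treatment.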

[1] = 62 g ai/ha, Preemergence, scale 0 to 100
[2] = 125 g ai/ha, preemergence, scale 0 (no effect) to 100 (complete control)
[3] = Postemergence, 62 g ai/ha, scale 0 to 100, 0 no effect, 100 complete control
[4] = Postemergence, 125 g ai/ha, scale 0 to 100, 0 no effect, 100 complete control
[5] = Postemergence, 250 g ai/ha, scale 0 to 100, 0 no effect, 100 complete control
[6] = Preemergence, 31 g ai/ha, scale 0 to 100 (0 no effect, 100 complete control)
[7] = preemergence, 250 g ai/ha, scale 0 (no effect) to 100 (complete control)
[8] = 250 g ai/ha, scale 0 to 100, 0 no effect, 100 complete control, 13 to 15 days
[9] = Postemergence, 500 g ai/ha, 0 is no effect, 100 is complete control
[10] = Preemergence, 125 g ai/ha, 0 no effect, 100 complete control
[11] = 62 g ai/ha, scale 0 to 100 (0 no effect, 100 complete control)

| Structure (SMILES) | Goosegrass plant response rating (Goosegrass; [1]) | Goosegrass plant response rating (Goosegrass; [2]) | Plant response rating (0 to 100), Goosegrass (Goosegrass; Postemergence, 31 g ai/ha) | Plant response rating, Goosegrass (Goosegrass; [3]) | Plant response rating, Goosegrass (Goosegrass; [4]) | Plant response rating, Goosegrass (Goosegrass; [5]) | Plant response rating, Goosegrass (Goosegrass; [6]) | Goosegrass plant response rating (Goosegrass; [7]) | Plant response rating, Sedge, Umbrella (umbrella sedge; [8]) | Crabgrass, Large plant response rating (crabgrass; [1]) | Crabgrass, Large plant response rating (crabgrass; [2]) | Plant response rating (0 to 100), Crabgrass, Large (crabgrass; Postemergence, 31 g ai/ha) | Plant response rating, Crabgrass, Large (crabgrass; [3]) | Plant response rating, Crabgrass, Large (crabgrass; [6]) | Crabgrass, Large plant response rating (crabgrass; [7]) | Plant response rating, Wheat (wheat; Postemergence, 125 g ai/ha) | Wheat plant response rating (wheat; [9]) | Wheat plant response rating (wheat; [10]) | Plant response rating, Wheat (wheat; Preemergence, 500 g ai/ha) | Plant response rating, Sedge, Umbrella (umbrella sedge; [11]) | other results |
| --- | --- | --- | --- | --- | --- | --- | --- | --- | --- | --- | --- | --- | --- | --- | --- | --- | --- | --- | --- | --- | --- |
| [O-][n+]1cc(Cl)ccc1[S+]([O-])Cc1c(C(F)(F)F)nn(CC(F)(F)F)c1Cl (stereo not shown) [Compound 47] | 100 | 100 | 0 | 0 | 0 | 60 | 98 | 100 | 100 | 100 | 100 | 0 | 0 | 98 | 100 | 50 | 60 | 60 | 90 |  | Plant response rating, Crabgrass, Large (crabgrass; [4]): 0; Plant response rating, Crabgrass, Large (crabgrass; [5]): 30 |
| Cn1nc(C(F)(F)F)c(C(Cl)S(=O)(=O)c2cccc[n+]2[O-])c1OC(F)F (stereo not shown) [Compound 51] | 100 | 100 |  |  |  |  | 100 | 100 | 95 | 100 | 100 |  |  | 65 | 100 | 40 | 60 | 30 | 50 |  |  |
| Cn1nc(C(F)(F)F)c(C[S+]([O-])c2ccc(F)c[n+]2[O-])c1Cl (stereo not shown) [Compound 54] | 100 | 100 |  |  |  |  | 95 | 100 | 100 | 100 | 100 |  |  | 85 | 100 | 30 | 50 | 10 | 70 |  | Plant response rating, Sedge, Umbrella (umbrella sedge; 31 g ai/ha, scale 0 to 100 (0 no effect, 100 complete control)): 0; Plant response rating, Sedge, Umbrella (umbrella sedge; 125 g ai/ha, scale 0 to 100, 0 no effect, 100 complete control, 13 to 15 days): 60 |
| CCc1cc[n+]([O-])c([S+]([O-])Cc2c(C(F)(F)F)nn(C)c2OCC(F)(F)F)c1 (stereo not shown) [Compound 59] | 100 | 100 |  |  |  |  | 100 | 100 | 100 | 80 | 100 |  |  | 70 | 100 | 60 | 70 | 60 | 90 | 80 |  |
| CCn1nc(C(F)(F)F)c(C(C)S(=O)(=O)c2cccc[n+]2[O-])c1OCC(F)(F)F (stereo not shown) [Compound 69] |  |  | 0 | 0 | 0 | 40 |  |  | 100 |  |  | 0 | 0 |  |  | 50 | 60 | 50 | 90 | 100 | Plant response rating, Crabgrass, Large (crabgrass; [4]): 0; Plant response rating, Crabgrass, Large (crabgrass; [5]): 0 |
| Cn1nc(C(F)(F)F)c(CS(=O)(=O)c2ccc(Cl)c[n+]2[O-])c1OCC(F)(F)F [Compound 73] | 100 | 100 |  |  |  |  | 98 | 100 | 65 | 85 | 85 |  |  | 85 | 95 | 0 | 30 | 0 | 50 | 0 |  |
| Cn1nc(C(F)(F)F)c(C[S+]([O-])c2cccc[n+]2[O-])c1OCC(F)F (stereo not shown) [Compound 75] | 85 | 100 |  |  |  |  | 80 | 100 | 85 | 85 | 100 |  |  | 40 | 100 | 50 | 70 | 70 | 100 | 50 |  |
| C#CCOc1c(C[S+]([O-])c2cccc[n+]2[O-])c(C(F)(F)F)nn1C (stereo not shown) [Compound 76] | 95 | 98 |  |  |  |  | 80 | 100 | 100 | 85 | 98 |  |  | 85 | 100 | 20 | 60 | 20 | 100 | 0 |  |
| Cn1nc(C(F)(F)F)c(C[S+]([O-])c2cccc[n+]2[O-])c1OCC(F)(F)C(F)(F)F (stereo not shown) [Compound 78] |  |  | 0 | 0 | 10 | 60 |  |  | 100 |  |  | 0 | 0 |  |  | 30 | 60 | 30 | 100 | 75 | Plant response rating, Crabgrass, Large (crabgrass; [4]): 0; Plant response rating, Crabgrass, Large (crabgrass; [5]): 20 |
